Reference: ChEMBL document CHEMBL6087474, “Discovery of an Efficacious RET PROTAC Degrader with Enhanced Antiproliferative Activity against Resistant Cancer Cells Harboring RET Solvent-Front Mutations” (J Med Chem, 2025)
Active and inactive are the calls of the source. No cut-off for these calls is given here.

Tests used:
[1] = system: BaF3; assay: Antiproliferative activity against mouse BaF3 cells stably expressing KIF5B-RET-V804L mutant incubated for 72 hrs by CCK-8 assay; format: functional, cell-based; settings: BaF3, 72 h
[2] = Effect on RET protein level in mouse BaF3 cells stably expressing KIF5B-RET-V804M mutant assessed as fold change at 33.3 nM measured after 6 hrs by Western blot analysis (reference value: 1); format: functional
[3] = system: BaF3; assay: Antiproliferative activity against mouse BaF3 cells stably expressing KIF5B-RET-G810C mutant incubated for 72 hrs by CCK-8 assay; format: functional, cell-based; settings: BaF3, 72 h
[4] = Induction of apoptosis in mouse BaF3 cells stably expressing KIF5B-RET-G810C mutant assessed as necrotic cells at 100 nM measured after 48 hrs by Annexin V-FITC/7-AAD staining based flow cytometric analysis (reference value: 2.89 %); format: functional
[5] = Induction of apoptosis in mouse BaF3 cells stably expressing KIF5B-RET-G810C mutant assessed as late apoptotic cells at 33.3 nM measured after 48 hrs by Annexin V-FITC/7-AAD staining based flow cytometric analysis (reference value: 1.96 %); format: functional
[6] = Potency index, ratio of selpercatinib IC50 to test compound IC50 for antiproliferative activity against mouse BaF3 cells stably expressing CCDC6-RET-G810C mutant incubated for 72 hrs by CCK-8 assay; format: functional
[7] = system: BaF3; assay: Antiproliferative activity against mouse BaF3 cells stably expressing KIF5B-RET-G810S mutant incubated for 72 hrs by CCK-8 assay; format: functional, cell-based; settings: BaF3, 72 h
[8] = Induction of apoptosis in mouse BaF3 cells stably expressing KIF5B-RET-G810C mutant assessed as viable cells at 300 nM measured after 48 hrs by Annexin V-FITC/7-AAD staining based flow cytometric analysis (reference value: 86.58 %); format: functional; settings: read-out: Activity
[9] = Induction of apoptosis in mouse BaF3 cells stably expressing wildtype KIF5B-RET fusion protein assessed as late apoptotic cells at 33.3 nM measured after 48 hrs by Annexin V-FITC/7-AAD staining based flow cytometric analysis (reference value: 1.03 %); format: functional
[10] = Induction of apoptosis in mouse BaF3 cells stably expressing KIF5B-RET-G810C mutant assessed as early apoptotic cells at 100 nM measured after 48 hrs by Annexin V-FITC/7-AAD staining based flow cytometric analysis (reference value: 8.57 %); format: functional
[11] = Effect on Shc protein level in mouse BaF3 cells stably expressing KIF5B-RET-V804M mutant assessed as fold change at 33.3 nM measured after 6 hrs by Western blot analysis (reference value: 1); format: functional
[12] = Induction of apoptosis in mouse BaF3 cells stably expressing KIF5B-RET-G810C mutant assessed as viable cells at 100 nM measured after 48 hrs by Annexin V-FITC/7-AAD staining based flow cytometric analysis (reference value: 86.58 %); format: functional; settings: read-out: Activity
[13] = system: BaF3; assay: PROTAC activity at CRBN/CK1alpha in mouse BaF3 cells overexpressing KIF5B-RET assessed as induction of […] at 10 to 1000 nM incubated for 6 hrs by Western blot analysis; format: cell-based; settings: dose 10-1000 nM
[14] = Induction of apoptosis in mouse BaF3 cells stably expressing KIF5B-RET-G810C mutant assessed as viable cells at 900 nM measured after 48 hrs by Annexin V-FITC/7-AAD staining based flow cytometric analysis (reference value: 86.58 %); format: functional; settings: read-out: Activity
[15] = Induction of apoptosis in mouse BaF3 cells stably expressing wildtype KIF5B-RET fusion protein assessed as early apoptotic cells at 11.1 nM measured after 48 hrs by Annexin V-FITC/7-AAD staining based flow cytometric analysis (reference value: 9.92 %); format: functional
[16] = Effect on RET protein level in mouse BaF3 cells stably expressing KIF5B-RET-V804M mutant assessed as fold change at 300 nM measured after 6 hrs by Western blot analysis (reference value: 1); format: functional
[17] = Potency index, ratio of selpercatinib IC50 to test compound IC50 for antiproliferative activity against mouse BaF3 cells stably expressing KIF5B-RET-G810R mutant incubated for 72 hrs by CCK-8 assay; format: functional
[18] = Induction of apoptosis in mouse BaF3 cells stably expressing wildtype KIF5B-RET fusion protein assessed as necrotic cells at 11.1 nM measured after 48 hrs by Annexin V-FITC/7-AAD staining based flow cytometric analysis (reference value: 2.40 %); format: functional
[19] = target: Protein cereblon/Proto-oncogene tyrosine-protein kinase receptor Ret/Kinesin-1 heavy chain (Homo sapiens) (UniProt P07949+P33176+Q96SW2); assay: PROTAC activity at CRBN/KIF5B-RET in human LC-2-ad cells assessed as induction of RET degradation at 11.1 nM measured after 6 hrs by Western blotting analysis relative to control; format: cell-based
[20] = Induction of apoptosis in mouse BaF3 cells stably expressing KIF5B-RET-G810C mutant assessed as necrotic cells at 33.3 nM measured after 48 hrs by Annexin V-FITC/7-AAD staining based flow cytometric analysis (reference value: 2.89 %); format: functional
[21] = system: BaF3; assay: Antitumor activity against mouse BaF3 cells stably expressing KIF5B-RET-G810C mutant implanted in male BALB/c mouse model assessed as reduction in tumor weight at 30 mg/kg, ip administered daily for 14 days relative to control; format: functional; parameters: scale not given: the % may be the effect or the level left; settings: time 14 day
[22] = Effect on RET protein level in mouse BaF3 cells stably expressing KIF5B-RET-G810R mutant assessed as fold change at 300 nM measured after 6 hrs by Western blot analysis (reference value: 1); format: functional
[23] = Bioavailability in male ICR mouse at 10 mg/kg, ip measured after 24 hrs by LC-MS/MS analysis; format: ADME, organism-based; settings: in vivo
[24] = Effect on RET protein level in mouse BaF3 cells stably expressing KIF5B-RET-G810R mutant assessed as fold change at 11.1 nM measured after 6 hrs by Western blot analysis (reference value: 1); format: functional
[25] = AUC in male ICR mouse at 10 mg/kg, ip measured after 24 hrs by LC-MS/MS analysis; format: ADME, organism-based; settings: in vivo
[26] = Induction of apoptosis in mouse BaF3 cells stably expressing KIF5B-RET-G810C mutant assessed as late apoptotic cells at 100 nM measured after 48 hrs by Annexin V-FITC/7-AAD staining based flow cytometric analysis (reference value: 1.96 %); format: functional
[27] = Effect on Shc protein level in mouse BaF3 cells stably expressing KIF5B-RET-G810R mutant assessed as fold change at 100 nM measured after 6 hrs by Western blot analysis (reference value: 1); format: functional
[28] = system: Kinesin-1 heavy chain/ Tyrosine-protein kinase receptor RET (Homo sapiens), P07949+P33176 [G810C]; assay: In vivo PROTAC activity at CRBN/KIF5B-RET-G810C mutant in male BALB/c mouse model implanted with mouse BaF3 cells stably expressing KIF5B-RET-G810C mutant assessed as induction of RET degradation in tumor at 30 mg/kg, ip measured after 3 days by Western blotting analysis relative to control; format: functional, organism-based; settings: time 3.0 day

Sequence of Protein cereblon/Proto-oncogene tyrosine-protein kinase receptor Ret/Kinesin-1 heavy chain (Homo sapiens) (P07949 whole entry, looked up): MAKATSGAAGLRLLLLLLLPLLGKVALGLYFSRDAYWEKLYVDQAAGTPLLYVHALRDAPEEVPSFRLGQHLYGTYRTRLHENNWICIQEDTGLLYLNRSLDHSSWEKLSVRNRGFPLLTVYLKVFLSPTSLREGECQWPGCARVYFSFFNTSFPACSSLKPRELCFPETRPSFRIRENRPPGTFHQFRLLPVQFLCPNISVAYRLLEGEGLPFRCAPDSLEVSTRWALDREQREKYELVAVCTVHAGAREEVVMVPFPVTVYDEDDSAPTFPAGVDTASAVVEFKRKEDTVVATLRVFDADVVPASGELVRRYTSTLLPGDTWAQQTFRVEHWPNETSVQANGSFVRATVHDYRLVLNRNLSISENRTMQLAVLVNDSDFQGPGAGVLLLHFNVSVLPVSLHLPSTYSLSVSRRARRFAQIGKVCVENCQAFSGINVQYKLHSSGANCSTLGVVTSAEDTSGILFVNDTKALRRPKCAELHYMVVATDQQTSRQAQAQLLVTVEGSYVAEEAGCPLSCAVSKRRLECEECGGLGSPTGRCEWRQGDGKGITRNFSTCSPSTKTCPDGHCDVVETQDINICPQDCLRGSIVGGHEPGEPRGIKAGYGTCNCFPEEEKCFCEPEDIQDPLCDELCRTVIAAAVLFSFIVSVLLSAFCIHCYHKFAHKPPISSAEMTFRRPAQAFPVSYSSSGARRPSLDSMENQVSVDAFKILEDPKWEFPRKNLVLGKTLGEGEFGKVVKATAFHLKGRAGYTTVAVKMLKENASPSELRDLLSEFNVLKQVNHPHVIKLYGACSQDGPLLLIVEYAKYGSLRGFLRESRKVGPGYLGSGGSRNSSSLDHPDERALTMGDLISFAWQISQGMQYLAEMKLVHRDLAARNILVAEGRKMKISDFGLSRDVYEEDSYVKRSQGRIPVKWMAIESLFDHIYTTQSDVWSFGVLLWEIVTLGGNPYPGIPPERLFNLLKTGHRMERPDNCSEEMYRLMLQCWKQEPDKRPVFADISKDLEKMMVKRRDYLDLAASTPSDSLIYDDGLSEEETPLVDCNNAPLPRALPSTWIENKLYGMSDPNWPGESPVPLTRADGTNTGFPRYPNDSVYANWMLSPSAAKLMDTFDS
Sequence of Protein cereblon/Proto-oncogene tyrosine-protein kinase receptor Ret/Kinesin-1 heavy chain (Homo sapiens) (P33176 whole entry, looked up): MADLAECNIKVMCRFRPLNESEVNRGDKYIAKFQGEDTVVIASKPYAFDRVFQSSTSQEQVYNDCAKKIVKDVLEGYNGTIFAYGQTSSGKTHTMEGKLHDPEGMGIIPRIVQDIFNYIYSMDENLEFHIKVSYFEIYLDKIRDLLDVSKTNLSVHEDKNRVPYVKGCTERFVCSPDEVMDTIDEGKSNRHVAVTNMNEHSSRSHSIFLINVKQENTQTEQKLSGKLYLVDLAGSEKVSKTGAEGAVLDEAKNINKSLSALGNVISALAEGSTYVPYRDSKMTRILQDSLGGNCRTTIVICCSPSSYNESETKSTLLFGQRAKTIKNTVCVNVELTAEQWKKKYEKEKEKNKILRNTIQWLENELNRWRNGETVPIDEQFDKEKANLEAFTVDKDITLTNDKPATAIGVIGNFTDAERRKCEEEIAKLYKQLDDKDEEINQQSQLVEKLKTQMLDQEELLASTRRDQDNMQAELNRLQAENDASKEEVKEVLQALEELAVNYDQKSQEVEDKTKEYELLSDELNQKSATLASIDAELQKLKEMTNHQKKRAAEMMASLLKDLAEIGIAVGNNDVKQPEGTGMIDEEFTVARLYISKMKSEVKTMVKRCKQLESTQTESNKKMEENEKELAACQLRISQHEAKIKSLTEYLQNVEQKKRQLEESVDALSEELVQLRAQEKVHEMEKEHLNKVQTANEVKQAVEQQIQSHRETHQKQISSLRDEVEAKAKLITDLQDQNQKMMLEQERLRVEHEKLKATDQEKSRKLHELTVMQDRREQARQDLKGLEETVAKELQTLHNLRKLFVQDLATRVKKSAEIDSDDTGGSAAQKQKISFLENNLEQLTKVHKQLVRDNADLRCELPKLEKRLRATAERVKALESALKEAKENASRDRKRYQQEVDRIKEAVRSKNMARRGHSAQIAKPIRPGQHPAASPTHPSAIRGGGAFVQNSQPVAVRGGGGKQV
Sequence of Protein cereblon/Proto-oncogene tyrosine-protein kinase receptor Ret/Kinesin-1 heavy chain (Homo sapiens) (Q96SW2 whole entry, looked up): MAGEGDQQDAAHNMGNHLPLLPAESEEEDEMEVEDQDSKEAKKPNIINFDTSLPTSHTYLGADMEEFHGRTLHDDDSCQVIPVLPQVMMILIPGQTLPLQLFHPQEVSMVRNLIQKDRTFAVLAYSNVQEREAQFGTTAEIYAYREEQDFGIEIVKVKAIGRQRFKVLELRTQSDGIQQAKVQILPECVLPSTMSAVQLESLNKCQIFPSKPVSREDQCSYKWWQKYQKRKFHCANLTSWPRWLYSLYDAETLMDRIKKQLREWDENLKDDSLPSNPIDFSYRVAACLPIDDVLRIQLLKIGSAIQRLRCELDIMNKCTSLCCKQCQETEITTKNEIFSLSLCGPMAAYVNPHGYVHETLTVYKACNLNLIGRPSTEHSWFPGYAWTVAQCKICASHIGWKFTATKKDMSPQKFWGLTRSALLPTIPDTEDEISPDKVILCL

## COc1ccc(CN2C3CC2CN(c2ccc(-c4cc(-c5cnn(C6CCN(CCCCCC#Cc7cccc8c7CN(C7CCC(=O)NC7=O)C8=O)CC6)c5)cn5ncc(C#N)c45)cn2)C3)cn1 (stereo not drawn)
[1]
  IC50: 50 nM
[2]
  fold change (FC): 0.2
[3]
  IC50: 50 nM
[4]
  Activity: 2.09%
[5]
  Activity: 1.62%
[6]
  Ratio IC50: ~8.8
[7]
  IC50: 90 nM
[8]
  viability at 0.3 µM: 63.1%
[9]
  Activity: 3.02%
[10]
  Activity: 19.9%
[11]
  fold change (FC): 1
[12]
  viability at 0.1 µM: 75.4%
[13]
  Activity: inactive
[14]
  viability at 0.9 µM: 41%
[15]
  Activity: 11.31%
[16]
  fold change (FC): 0.1
[17]
  Ratio IC50: ~7
[18]
  Activity: 3%
[19]
  Activity: 61.6%
[20]
  Activity: 2.77%
[21]
  Activity: 34.4%
[22]
  fold change (FC): 0.6
[23]
  bioavailability: 17.3%
[24]
  fold change (FC): 1
[25]
  AUC at 24 h: 680 ng·h/mL
[26]
  Activity: 2.61%
[27]
  fold change (FC): 0.9
[28]
  Activity: 55.3%
